# Data taken from patent US10435697B2, “Recombinant expression system that senses pathogenic microorganisms” (priority 2014, dated 2019).
# Ends that are not written are not given here.
# B1: Microcin S (protein, listed as Escherichia coli)
# chain: MSNIRELSFDEIALVSGGNANSNYEGGGSRSRNTGARNSLGRNAPTHIYSDPSTVKCANAVFSGMVGGAIKGGPVGMTRGTIGGAVIGQCLSGGGNGNGGGNRAGSSNCSGSNVGGTCSR
# Columns and labels:
# [1] = system: pathogenic E. coli; settings: Yaraksa et al. 2014; cited from earlier work
# [2] = system: V. cholerae; settings: previously shown (Da Silva 2008; Moghaddam 2012; Yaraksa 2014); cited from earlier work
# [3] = system: CqsS/CAI-1 quorum-sensing phosphorelay system of V. cholerae; experiment: CAI-1 sensing by two-plasmid system (CqsS, LuxU, LuxO; GFP under pQrr4); format: cell-based, Vibrio cholerae; settings: LuxO induced by arabinose
# Description: In the test construct the pBAD promoter drives LuxO. […] This is due to the downregulation of pQrr4 promoter by the CqsS cascade originating form V. cholera. In contrast, no alteration of GFP expression was observed when arabinose was present, but CAI-1 was absent. […] The system is inducible by arabinose in order to add an additional level of control.
# In the next step, a double plasmid system, with the CqsS (SEQ ID NO 6), LuxU (SEQ ID NO 7) and LuxO (SEQ ID NO 8) genes expressed on one plasmid and GFP (SEQ ID NO) under pQrr4 promoter (SEQ ID NO 19) on another was generated. Thus, this system comprises the CAI-1 sensor module, in which phosphorylated LuxO activates the Qrr4 promoter. In the test construct the pBAD promoter drives LuxO, which is inducible by arabinose.
# In other words, the system changes its fluorescence with different concentrations of CAI-1.
# [4] = system: E. coli Top10; experiment: Growth curves (OD600) of E. coli Top10 after induced expression of the peptide from a plasmid; format: cell-based, Escherichia coli
# Description: To evaluate the activity of Microcin S (mcsS) and Microcin immunity protein (mcsI) in E. coli Top10 cells five different plasmids were constructed (FIG. 10).
# Moreover, also the effect of Microcin immunity protein (mcsI) in the presence of Microcin S was studied. For this, the mcsI gene was introduced into the pBbE8K+McsS-YebF-I and pBbE8K+McsS-I plasmids resulting in pBbE8K+McsI+McsS-YebF-II and pBbE8K+McsI+McsS-II, respectively. In these constructs, mcsS expression is controlled by an araC pBAD activator-promoter (SEQ ID NO), rendering Microcin S expression inducible by L-arabinose. In contrast, mcsI expression is constitutively ON when using the rrnB promoter (SEQ ID NO 28).
# Furthermore, also the effect of Microcin whole cascade in E. coli Top10 growing in liquid culture with 0.125% arabinose and without arabinose after being transformed with construct 5 of FIG. 12 was studied.
# For example, in the case of CM11 (P3) the P3 gene was cloned under the arabinose promoter (pBAD) in the pBbE8K vector resulting in the pBbE8K+P3 plasmid. In other words, P3 expression in this construct is controlled by an araC PBAD activator-promoter, rendering P3 expression inducible by L-arabinose.
# In addition, in order to characterize the lysis activity in E. coli, the lysis E7 gene was cloned under the tetracycline promoter (pTet) in the pBbA2C vector resulting in the pBbA2C+E7 plasmid.
# [5] = system: E. coli Nissile; format: cell-based, Escherichia coli; settings: LB broth, 18-20 h at 37° C., DMSO control
# Procedure: FIG. 17 MIC of the synthetic peptide CM11 (P3) against E. coli Nissile. […] As a control only DMSO was used.
# (§1) Moreover, a minimum inhibitory concentration (MIC) assay was conducted using CM11 (P3). The medium used for the broth microdilution test was LB Broth and the cells were V. cholera A1522-Rugose-GFP and E. coli Nissile strains. Overnight cultures were transferred into 5 ml of LB and were grown at 37° C. for 2-3 h. To approximate the density of 0.5 McFarland standard, this suspension with the inoculum concentration of 108 colony forming units (CFU/ml) was then diluted to 106 CFU/ml with the LB broth. Peptide P3 stock solution of 1000 μg/ml was prepared using DMSO. Serial two-fold dilutions of the peptide (P3) with the following concentration (2-100 μg/ml) were prepared with LB broth and placed in 96-well microtiter plates and the lowest concentration inhibiting visible growth after 18-20 h at 37° C. was recorded as MIC (see FIGS. 16 and 17).
# [6] = system: V. cholerae (A1522 Rugose-GFP); format: cell-based, Vibrio cholerae; settings: LB broth, 18-20 h at 37° C., absorbance and GFP fluorescence monitored, DMSO control
# Procedure: […]. The target cells were effectively killed at an MIC of 50 μM. As a control only DMSO was used. As the target cells express GFP embedded into its chromosome, the GFP fluorescence (B) along with the absorbance (growth) (A) was monitored in this experiment.
# as §1
# [7] = system: E. coli wt; experiment: Microbroth dilution assay of purified Microcin S on E. coli; format: cell-based, Escherichia coli
# Procedure: (§2) In addition, the Microcin S peptide was purified to test its efficacy on V. cholerae and E. coli. […] Subsequently, the cells were pelleted by centrifugation at 4000 g for 20 min and lysed using a sonicator. Purification of Microcin S was carried out using Qiagen Ni-NTA fast start kit. The eluate was dialysed using Slide-A-Lyzer dialysis cassette and a 2 KDa cutoff (Life Technologies) for 4 hrs in 1×PBS. The dialysed samples were concentrated by ultra filtration using a molecular mass cutoff membrane (Amicon Ultra-15 Centrifugal Filter Unit, Millipore). As the estimated size of the protein is approximately 12 kDa, the first concentration was done using a 30 kDa cutoff membrane where the flow-through was collected and subsequently passed through a 3 kDa cutoff membrane. The resulting retentate was collected and the concentration was quantified using Quant-IT protein assay kit (Life Technologies).
# (§3) The induced sample expressed has Microcin S (FIG. 13B) and the fluorescence reading from the Quant-it assay was 1135, which was close to a concentration of 200 ng/μl, calculated from the standard curve (FIG. 13A). […] After the presence of Microcin S was confirmed from the purified sample, a microbroth dilution assay was carried out to measure the minimum inhibitory concentration of purified Microcin S on V. cholerae and E. coli. […]
# [8] = system: V. cholerae; experiment: Microbroth dilution assay of purified Microcin S on V. cholerae; format: cell-based, Vibrio cholerae
# Procedure: as §2, §3
# [9] = expression induced with 0.125% L-arabinose (pBAD), vs un-induced
molecule,measurement,setting,value
Magainin 2 (GIGKFLHSAKKFGKAFVGEIMNS; listed as Xenopus laevis),activity against pathogenic E. coli,[1],good killing efficiency
same,activity against V. cholerae,[2],good killing efficiency
"CCCCCCCCCC(=O)[C@@H](O)CC [CAI-1, (S)-3-hydroxytridecan-4-one]",GFP expression on addition of CAI-1,[3],a drop in the GFP expression was observed
Lysis E7 (MKKITGIILLLLAAIILAACQANYIRDVQGGTVSPSSTAELTGVETQ; Secretory peptide),time to lyse E. coli,[4]; 200 nM atc,≤ 4 h
same,OD600 of host cell after induction (lysis),"[4]; pBbA2C+E7, 200 nM anhydrotetracycline, vs un-induced",reduced significantly due to the lysis
G14.15 (GRSRWRRVSRRFMRR),activity against V. cholerae,[2],effectively control the growth of V. cholerae both in vitro and in vivo
CM15 (KWKLFKKIGAVLKVL-NH2),activity against V. cholerae,[2],show inhibitory activity
WKLFKKILKVL-NH2 [CM11],growth (OD600) of host cell after induction,"[4]; pBbE8K+P3, induced with 0.2% L-arabinose, vs un-induced, listed as CM11 (P3)",reduces the growth of E. coli
same,growth (OD600) of host cell after induction,"[4]; pBbE8K+P3, induced with 0.2% L-arabinose, vs un-induced, listed as P3",reduced significantly
same,activity against V. cholerae,[2],show inhibitory activity
same,MIC,[5],25 µM
same,MIC,[6],50 µM
G12.21 (RRVSRRPMRRYRSRRPRRLV),activity against V. cholerae,[2],effectively control the growth of V. cholerae both in vitro and in vivo
McsS-YebF,growth (OD600) of host cell after induction,[4]; [9],complete growth inhibition
B1,inhibitory activity,[7],has inhibitory activity
same,Minimal inhibition concentration,"[7]; LB broth, 4 hrs, OD",100 ng/µL
same,inhibitory activity,[8],has inhibitory activity
same,Minimal inhibition concentration,"[8]; LB broth, 4 hrs, OD",100 ng/µL
same,growth (OD600) of host cell after induction,[4]; [9],reduced OD600 readings
same,growth (OD600) of host cell after induction,"[4]; expression induced with 0.125% L-arabinose (pBAD), vs un-induced, listed as McsS",complete growth inhibition
